Here are results for 27 molecules from patent US5574043A, “Certain [1,2,5-thiadiazol-4-yl]-1-azabicyclo [3.2.1]octane derivatives and their pharmaceutical uses” (Novo Nordisk A/S, priority 1995, dated 1996).

Each structure is given as a SMILES string. Structures can show the parent of a compound that is named as a salt.

The experiment addresses muscarinic acetylcholine receptors. Kind of experiment: Inhibition of specific binding of 3H-Oxotremorine-M (OXO BINDING) in vitro, rat cortex. More on the design: species or system male Wistar rats. To be noted: rat cortex homogenate, 3H-Oxotremorine 1.0 nM, 30 min at 25° C., pH 7.4. The text has this:
The pharmacological properties of the compounds of the invention can be illustrated by determining their capability to inhibit the specific binding of ^3 H-Oxotremorine-M (^3 H-Oxo). Birdsdall N. J. M., Hulme E. C., and Burgen A. S. V. (1980). "The Character of Muscarinic Receptors in Different Regions of the Rat Brain". Proc. Roy. Soc. London (Series B) 207,1.
^3 H-Oxo labels muscarinic receptor in the CNS (with a preference for agonist domains of the receptors). Three different sites are labelled by ^3 H-Oxo. […] Using the present experimental conditions only the high and medium affinity sites are determined.
The inhibitory effects of compounds on ^3 H-Oxo binding reflects the affinity for muscarinic acetylcholine receptors.
All preparations are performed at 0°-4° C. unless otherwise indicated. Fresh cortex (0.1-1 g) from male Wistar rats (150-250 g) is homogenized for 5-10 s in 10 ml 20 mM Hepes pH: 7.4, with an Ultra-Turrax homogenizer. The homogenizer, is rinsed with 10 ml of buffer and the combined suspension centrifuged for 15 min at 40,000×g. The pellet is washed three times with buffer. In each step the pellet is homogenized as before in 2×10 ml of buffer and centrifuged for 10 min at 40,000×g.
The final pellet is homogenized in 20 mM Hepes pH: 7.4 (100 ml per g of original tissue) and used for binding assay. Aliquots of 0.5 ml is added 25 μl of test solution and 25 μl of ^3 H-Oxotremorine (1.0 nM, final concentration) mixed and incubated for 30 min at 25° C. Non-specific binding is determined in triplicate using arecoline (1 μg/ml, final concentration) as the test substance. After incubation samples are added 5 ml of ice-cold buffer and poured directly onto Whatman GF/C glass fibre filters under suction and immediately washed 2 times with 5 ml of ice-cold buffer. The amount of radioactivity on the filters are determined by conventional liquid scintillation counting. Specific binding is total binding minus non specific binding.
Test substances are dissolved in 10 ml water (if necessary heated on a steam bath for less than 5 minutes) at a concentration of 2.2 mg/ml.
The test value will be given as IC50 (the concentration (ng/ml) of the test substance which inhibits the specific binding of ^3 H-Oxo by 50%).
IC50 =(applied test substance concentration) [formula] where Co is specific binding in control assays and Cx is the specific binding in the test assay. (The calculations assume normal mass-action kinetics).

Consider `CCCCCSc1nsnc1C1CN2CCC1CC2.O=C(O)/C=C/C(=O)O` (stereo not drawn) [Compound 12, 3-(3-Pentylthio-1,2,5-thiadiazol-4-yl)-1-azabicyclo[2.2.2]octane fumarate], for which the “Inhibition in vitro OXO BINDING IC50” value came out at 0.45 ng/mL.
The same measure, in the same setting: the result for `CCCCCCOc1nsnc1C1CN2CCC1CC2.O=C(O)/C=C/C(=O)O` (stereo not drawn) [Compound 11, 3-(3-Hexyloxy-1,2,5-thiadiazol-4-yl)-1-azabicyclo[2.2.2]octane fumarate] reads 1.2 ng/mL; that for `CCCCOc1nsnc1C1CN2CCC1CC2.O=C(O)C(=O)O` (stereo not drawn) [Compound 46, 3-(3-Butoxy-1,2,5-thiadiazol-4-yl)-1-azabicyclo[2.2.2]octane oxalate], 0.56 ng/mL; that for `CCCCCCOc1nsnc1C1=CC2CCCN(C1)C2.O=C(O)C(=O)O` (stereo not drawn) [Compound 98, 3-(3-Hexyloxy-1,2,5-thiadiazol-4-yl)-1-azabicyclo[3.3.1]non-3-ene oxalate], 1.0 ng/mL.
The same measure, in the same setting: with `CCCCSc1nsnc1[C@@H]1CN2CCC[C@@H]1C2` (single isomer, unassigned) [Compound 111, (+)-Exo-6-(3-butylthio-1,2,5-thiadiazol-4-yl)-1-azabicyclo[3.2.1]octane (+) L-tartrate] the figure was 0.32 ng/mL.
Same read-out and setting: with `COc1nsnc1[C@@H]1CN2CC[C@H]1C2` (relative stereo) [Compound 23, Endo-3-(3-methoxy-1,2,5-thiadiazol-4-yl)-1-azabicyclo[2.2.1]heptane oxalate] the figure was 43 ng/mL; with `CCCCSc1nsnc1[C@@H]1CN2CCC[C@@H]1C2` (single isomer, unassigned) [Compound 112, (-)-Exo-6-(3-butylthio-1,2,5-thiadiazol-4-yl)-1-azabicyclo[3.2.1]octane (-) D-tartrate], 0.19 ng/mL; with `COc1nsnc1C1=CC2CCCN(C1)C2.O=C(O)C(=O)O` (stereo not drawn) [Compound 96, 3-(3-Methoxy-1,2,5-thiadiazol-4-yl)-1-azabicyclo[3.3.1]non-3-ene oxalate], 0.3 ng/mL.
In the case of `CCCSc1nsnc1[C@H]1CN2CC[C@H]1C2` (relative stereo) [Compound 40, Exo-3-(3-propylthio-1,2,5-thiadiazol-4-yl)-1-azabicyclo[2.2.1]heptane oxalate], the “Inhibition in vitro OXO BINDING IC50” value was determined as 0.19 ng/mL.
The same measure, in the same setting: the result for `CCCCCOc1nsnc1C1CN2CCC1CC2.O=C(O)C(=O)O` (stereo not drawn) [Compound 50, 3-(3-Pentyloxy-1,2,5-thiadiazol-4-yl)-1-azabicyclo[2.2.2]octane oxalate] reads 1.0 ng/mL.
On the same count and under the same terms, the result for `CCCCSc1nsnc1C1CN2CCC1CC2.O=C(O)/C=C/C(=O)O` (stereo not drawn) [Compound 13, 3-(3-Butylthio-1,2,5-thiadiazol-4-yl)-1-azabicyclo[2.2.2]octane fumarate] reads 0.65 ng/mL; that for `O=C(O)C(=O)O.OC1(c2nsnc2Cl)CN2CCC1CC2` (stereo not drawn) [Compound 2, 3-(3-Chloro-1,2,5-thiadiazol-4-yl)-3-hydroxy-1-azabicyclo[2.2.2]octane oxalate], 270 ng/mL.
`CCCCOc1nsnc1C1=CC2CCCN(C1)C2.O=C(O)C(=O)O` (stereo not drawn) [Compound 95, 3-(3-Butoxy-1,2,5-thiadiazol-4-yl)-1-azabicyclo[3.3.1]non-3-ene oxalate]: the “Inhibition in vitro OXO BINDING IC50” value came to 1.7 ng/mL.
Same read-out and setting: the result for `FC(F)(F)C(F)(F)C(F)(F)COc1nsnc1[C@@H]1CN2CCC[C@@H]1C2` (relative stereo) [Compound 116, Exo-6-(3-(2,2,3,3,4,4,4-heptafluorobutyloxy)-1,2,5-thiadiazol-4-yl)-1-azabicyclo[3.2.1]octane oxalate] reads 1.4 ng/mL; that for `N#CCCCSc1nsnc1[C@H]1CN2CCC[C@H]1C2` (relative stereo) [Compound 81, Exo-6-(3-(3-cyanopropyithio)-1,2,5-thiadiazol-4-yl)-1-azabicyclo[3.2.1]octane oxalate], 0.40 ng/mL; that for `CCCCCCOc1nsnc1C1=C(Cl)C2CCCN(C1)C2.Cl` (stereo not drawn) [Compound 94, 4-Chloro-3-(3-hexyloxy-1,2,5-thiadiazol-4-yl)-1-azabicyclo[3.3.1]non-3-ene hydrochloride], 12 ng/mL.
Same read-out and setting: the result for `CCCOc1nsnc1C1=C(Cl)C2CCCN(C1)C2` (stereo not drawn) [Compound 62, 4-Chloro-3-(3-propyloxy-1,2,5-thiadiazol-4-yl)-1-azabicyclo[3.3.1]non-3-eneoxalate] reads 1.9 ng/mL; that for `CCOc1nsnc1C1CN2CCC1CC2.O=C(O)/C=C/C(=O)O` (stereo not drawn) [Compound 9, 3-(3-Ethoxy-1,2,5-thiadiazol-4-yl)-1-azabicyclo[2.2.2]octane fumarate], 0.69 ng/mL.
Take `O=C(O)/C=C/C(=O)O.c1nsnc1C1CN2CCC1CC2` (stereo not drawn) [Compound 132, 3-(1,2,5-Thiadiazol-3-yl)-1-azabicyclo[2.2.2]octane fumarate]: the “Inhibition in vitro OXO BINDING IC50” value amounted to 0.96 ng/mL.
`CCCCSc1nsnc1C1CN2CCC1CC2.O=C(O)C(O)C(O)C(=O)O` (single isomer, unassigned) [Compound 55, (-) 3-(3-Butylthio-1,2,5-thiadiazol-4-yl)-1-azabicyclo[2.2.2]octane (+) L-tartrate]: the “Inhibition in vitro OXO BINDING IC50” value (L-tartrate) amounted to 0.43 ng/mL.
For the molecule `CCCCSc1nsnc1[C@H]1CN2CCC[C@H]1C2` (relative stereo) [Compound 30, Exo-6-(3-butylthio-1,2,5-thiadiazol-4-yl)-1-azabicyclo[3.2.1]octane oxalate], the “Inhibition in vitro OXO BINDING IC50” value is 0.13 ng/mL.
The same measure, in the same setting: the result for `CC(C)CCSc1nsnc1[C@@H]1CN2CCC[C@H]1C2` (relative stereo) [Compound 86, Endo-6-(3-isopentylthio-1,2,5-thiadiazol-4-yl)-1-azabicyclo[3.2.1]octane oxalate] reads 3.5 ng/mL; that for `ClC1=C(c2cnsn2)CN2CCCC1C2.O=C(O)C(=O)O` (stereo not drawn) [Compound 65, 4-Chloro-3-(1,2,5-thiadiazol-4-yl)-1-azabicyclo[3.3.1]non-3-ene oxalate], 9.6 ng/mL; that for `CCCSc1nsnc1[C@@H]1CN2CC[C@H]1C2` (relative stereo) [Compound 37, Endo:3-(3-propylthio-1,2,5-thiadiazol-4-yl)-1-azabicyclo[2.2.1]heptane oxalate], 2.0 ng/mL.
The same measure, in the same setting: with `N#CCCSc1nsnc1[C@H]1CN2CCC[C@H]1C2` (relative stereo) [Compound 80, Exo-6-(3-(2-cyanoethylthio)-1,2,5-thiadiazol-4-yl)-1-azabicyclo[3.2.1]octane oxalate] the figure was 0.30 ng/mL; with `CCCCCOc1nsnc1C1=C(Cl)C2CCCN(C1)C2` (stereo not drawn) [Compound 63, 4-Chloro-3-(3-pentyloxy-1,2,5-thiadiazol-4-yl)-1-azabicyclo[3.3.1]non-3-eneoxalate], 8.2 ng/mL.
Still for that read-out and setting: the result for `CCOc1nsnc1[C@H]1CN2CCC[C@@H]1C2` (relative stereo) [Compound 20, Endo-6-(3-ethoxy-1,2,5-thiadiazol-4-yl)-1-azabicyclo[3.2.1]octane oxalate] reads 11 ng/mL.
